We go through 2 molecules from US20260183303A1, “PDK1 REGULATORY COMPOUND AND COMPOSITION CONTAINING THE SAME” (PROVIBIO CO., LTD., priority 2024, published 2026).

The subject of assay [1] is HCT-116 colon cancer cell lines. In words: Invasion Assay using Matrigel, HCT-116. Conditions: HCT-116, Matrigel, 24 hours treatment, vs DMSO. The class given is cell-based, Human. The protocol: To evaluate the metastasis inhibitory efficacy of the compounds of the present invention on HCT-116 colon cancer cell lines, an Invasion Assay using Matrigel was performed to assess the cells' invasion ability.
First, Matrigel was thawed on ice in RPMI-1640 medium without FBS, then diluted with DMEM at a ratio of 1:20.
The diluted Matrigel mixture was applied to the upper chamber at 100 μl per well, and 750 μl of RPMI-1640 without FBS was added to the lower chamber.
The plates were then incubated at 37° C. for 1 hour to allow the Matrigel to solidify.
After coating, the Matrigel mixture in the upper chamber was removed using a pipette, and the chamber was washed with RPMI without FBS.
Human-derived colorectal cancer cell line HCT-116, obtained from the Korean Cell Bank, was cultured in RPMI-1640 medium containing 10% FBS. […]
After staining was complete, any remaining cells in the upper chamber were removed. Finally, the infiltrated cells were observed under a microscope, photographed, and the degree of infiltration was analyzed.

Assay [2] concerns T cells isolated from mouse spleens. Briefly: T cell proliferation inhibition (CFSE flow cytometry, anti-CD3/anti-CD28 activation). Type of assay: cell-based, C57BL/6 mice. Conditions: mouse spleen T cells, CD3/CD28 activated, cultured three days. Put shortly:
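Splenic T cells from 7-week-old C57BL/6 mice were CFSE-labelled and seeded at 2×10^5/well. They were activated with anti-CD3/anti-CD28 ([…]) and treated with compound at […] in triplicate for 3 days at 37 °C. Proliferation was read by CFSE dilution on flow cytometry and expressed as % inhibition.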

For a further assay, the system named is psoriasis-induced mice. Briefly: In vivo psoriasis model (Aldara cream, Imiquimod). Further details: species or system BALB/c mice. The protocol: To verify the therapeutic effect of the compound according to the present invention on psoriasis, a psoriasis animal model was established as follows, and the compound according to the present invention was administered to evaluate the alleviation of skin lesions and changes in immune cell patterns.
For the establishment of the psoriasis animal model, BALB/c mice (7 weeks old, female, 20 g) were purchased from HanabioTech Co., Ltd. and acclimatized to the rearing environment for one week.
Subsequently, the hair on the mouse back was shaved using a hair removal device for the first time, and then completely shaved using a depilatory cream (Nicrin Cream (80% thioglycolic acid, II Dong Pharmaceutical)) for the second time. […]
Body weights of mice in each group were measured on days 1, 4, and 8 after the start of injection and psoriasis induction. […]
To evaluate the therapeutic effect in a psoriasis-induced mouse model, the PASI (Psoriasis Area and Severity Index) score was measured.
The PASI score is based on three criteria: erythema, scaling, and skin thickness, each scored from 0 (none) to 4 (severe). […]
Observations were conducted daily at the same time, and the same observer visually assessed each criterion and recorded the scores, with the results presented in FIG. 13. […]
All samples were measured in duplicate, and the absorbance was measured at 450 nm using a microplate reader.

“12-(4-Hydroxypiperazin-1-Yl)Dodecyl-N-(6-Aminopurazin-2-Yl)Carboxamide [Compound 10]”: in assay [1], the “number of infiltrated cells (invasion)” value was “reduction in the number of infiltrated cells”. The “Proliferation inhibition rate (%)” value in assay [2] (10 nM), in assay [2] (100 nM), in assay [2] (1 μM), in assay [2] (10 μM), in assay [2] (30 μM) and in assay [2] (50 μM) was 100.00% each time.

For `Nc1nc(NC(=O)CCCCCCCCCCCCN2CCN(CCO)CC2)nc2nc[nH]c12` [Compound 15, 12-[4-(2-Hydroxyethyl)Piperazin-1-Yl]Dodecyl-N-(6-Aminopurine-2-Yl)Carboxamide], the “efficacy in improving dermatological symptoms” value in the assay with psoriasis-induced mice is listed as “excellent efficacy in improving dermatological symptoms”.
